Values quoted from earlier work, collected in patent US20130210879A1, “FORMULATIONS OF BENDAMUSTINE” (priority 2012, published 2013).

Cn1c(CCCC(=O)O)nc2cc(N(CCCl)CCCl)ccc21 [Bendamustine]
stability in water: measured in hours
